From the kinase profiling compilation of Christmann-Franck et al. (2016)

Columns and labels:
Assay in all cases: KINOMEscan competition binding
Settings in all cases: compound 10.0 µM
PRKCE (human) = PRKCE (human) (UniProt Q02156)
PTK2 (human) = PTK2 (human) (UniProt Q05397)
SRPK2 (human) = SRPK2 (human) (UniProt P78362)
MAP3K7 (human) = MAP3K7 (human) (UniProt O43318)
[1] = tested on: EGFR (human), P00533 [A750P; 747-749 del]
FRK (human) = FRK (human) (UniProt P42685)
SGK110 (human) = SGK110 (human) (UniProt P0C264)
PAK6 (human) = PAK6 (human) (UniProt Q9NQU5)
NEK5 (human) = NEK5 (human) (UniProt Q6P3R8)
DAPK1 (human) = DAPK1 (human) (UniProt P53355)
PAK3 (human) = PAK3 (human) (UniProt O75914)
EPHA7 (human) = EPHA7 (human) (UniProt Q15375)
AURKB (human) = AURKB (human) (UniProt Q96GD4)
TSSK1B (human) = TSSK1B (human) (UniProt Q9BXA7)
ICK (human) = ICK (human) (UniProt Q9UPZ9)
PIK3CB (human) = PIK3CB (human) (UniProt P42338)
STK24 (human) = STK24 (human) (UniProt Q9Y6E0)
MAP3K9 (human) = MAP3K9 (human) (UniProt P80192)
MAPK12 (human) = MAPK12 (human) (UniProt P53778)
TIE1 (human) = TIE1 (human) (UniProt P35590)
RPS6KA5 KD1 (human) = RPS6KA5 KD1 (human) (UniProt O75582)
SIK2 (human) = SIK2 (human) (UniProt Q9H0K1)
FLT4 (human) = FLT4 (human) (UniProt P35916)
MAP3K13 (human) = MAP3K13 (human) (UniProt O43283)
PIK3C2B (human) = PIK3C2B (human) (UniProt O00750)
IRAK4 (human) = IRAK4 (human) (UniProt Q9NWZ3)
RIPK4 (human) = RIPK4 (human) (UniProt P57078)
RPS6KA6 KD1 (human) = RPS6KA6 KD1 (human) (UniProt Q9UK32)
STK32C (human) = STK32C (human) (UniProt Q86UX6)
MTOR (human) = MTOR (human) (UniProt P42345)
PRKD1 (human) = PRKD1 (human) (UniProt Q15139)
PRPF4B (human) = PRPF4B (human) (UniProt Q13523)
CSNK2A1 (human) = CSNK2A1 (human) (UniProt P68400)
CHUK (human) = CHUK (human) (UniProt O15111)
CaMK1 (human) = CaMK1 (human) (UniProt Q14012)
TNNI3K (human) = TNNI3K (human) (UniProt Q59H18)
CDK16 (human) = CDK16 (human) (UniProt Q00536)
CDK9 (human) = CDK9 (human) (UniProt P50750)
TNK2 (human) = TNK2 (human) (UniProt Q07912)
MAPK6 (human) = MAPK6 (human) (UniProt Q16659)

Chain of CDK16 (human) (Q00536 whole entry, looked up): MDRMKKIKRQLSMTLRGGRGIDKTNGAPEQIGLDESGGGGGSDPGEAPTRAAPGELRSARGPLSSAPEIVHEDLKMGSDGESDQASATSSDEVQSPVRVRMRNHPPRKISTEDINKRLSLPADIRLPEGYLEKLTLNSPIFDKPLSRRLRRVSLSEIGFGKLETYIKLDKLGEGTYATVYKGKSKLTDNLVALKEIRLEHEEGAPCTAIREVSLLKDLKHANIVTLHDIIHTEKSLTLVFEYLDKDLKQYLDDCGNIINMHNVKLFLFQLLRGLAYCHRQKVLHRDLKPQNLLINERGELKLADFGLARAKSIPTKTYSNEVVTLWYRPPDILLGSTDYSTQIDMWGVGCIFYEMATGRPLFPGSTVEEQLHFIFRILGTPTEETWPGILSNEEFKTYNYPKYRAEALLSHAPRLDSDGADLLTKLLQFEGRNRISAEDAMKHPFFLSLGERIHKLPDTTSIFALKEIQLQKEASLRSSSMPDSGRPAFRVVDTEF
Chain of FRK (human) (P42685 whole entry, looked up): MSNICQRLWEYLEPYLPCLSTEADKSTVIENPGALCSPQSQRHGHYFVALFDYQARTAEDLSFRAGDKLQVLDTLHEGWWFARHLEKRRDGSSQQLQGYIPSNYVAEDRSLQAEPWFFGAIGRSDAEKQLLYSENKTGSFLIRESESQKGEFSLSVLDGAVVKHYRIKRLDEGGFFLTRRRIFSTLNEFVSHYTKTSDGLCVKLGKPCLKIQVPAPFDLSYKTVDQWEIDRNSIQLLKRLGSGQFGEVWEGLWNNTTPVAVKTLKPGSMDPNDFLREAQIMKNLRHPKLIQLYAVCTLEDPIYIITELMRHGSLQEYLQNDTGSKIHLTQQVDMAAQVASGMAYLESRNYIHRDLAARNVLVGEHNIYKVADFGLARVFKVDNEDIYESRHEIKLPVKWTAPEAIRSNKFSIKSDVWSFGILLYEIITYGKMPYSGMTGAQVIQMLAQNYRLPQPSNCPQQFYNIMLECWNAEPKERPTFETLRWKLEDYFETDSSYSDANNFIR
Chain of IRAK4 (human) (Q9NWZ3 whole entry, looked up): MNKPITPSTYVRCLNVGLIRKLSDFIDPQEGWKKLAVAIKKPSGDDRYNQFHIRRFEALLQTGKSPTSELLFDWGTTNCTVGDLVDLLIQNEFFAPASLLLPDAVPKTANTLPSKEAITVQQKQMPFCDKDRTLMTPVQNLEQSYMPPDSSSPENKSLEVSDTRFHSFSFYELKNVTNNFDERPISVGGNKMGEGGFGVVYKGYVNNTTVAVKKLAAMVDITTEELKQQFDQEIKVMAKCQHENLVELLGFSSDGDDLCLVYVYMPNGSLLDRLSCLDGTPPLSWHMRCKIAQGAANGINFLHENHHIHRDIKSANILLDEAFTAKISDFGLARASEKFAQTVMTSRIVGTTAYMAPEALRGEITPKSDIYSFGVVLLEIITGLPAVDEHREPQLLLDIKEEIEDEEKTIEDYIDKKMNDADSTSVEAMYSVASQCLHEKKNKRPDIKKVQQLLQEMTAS
Chain of PIK3CB (human) (P42338 whole entry, looked up): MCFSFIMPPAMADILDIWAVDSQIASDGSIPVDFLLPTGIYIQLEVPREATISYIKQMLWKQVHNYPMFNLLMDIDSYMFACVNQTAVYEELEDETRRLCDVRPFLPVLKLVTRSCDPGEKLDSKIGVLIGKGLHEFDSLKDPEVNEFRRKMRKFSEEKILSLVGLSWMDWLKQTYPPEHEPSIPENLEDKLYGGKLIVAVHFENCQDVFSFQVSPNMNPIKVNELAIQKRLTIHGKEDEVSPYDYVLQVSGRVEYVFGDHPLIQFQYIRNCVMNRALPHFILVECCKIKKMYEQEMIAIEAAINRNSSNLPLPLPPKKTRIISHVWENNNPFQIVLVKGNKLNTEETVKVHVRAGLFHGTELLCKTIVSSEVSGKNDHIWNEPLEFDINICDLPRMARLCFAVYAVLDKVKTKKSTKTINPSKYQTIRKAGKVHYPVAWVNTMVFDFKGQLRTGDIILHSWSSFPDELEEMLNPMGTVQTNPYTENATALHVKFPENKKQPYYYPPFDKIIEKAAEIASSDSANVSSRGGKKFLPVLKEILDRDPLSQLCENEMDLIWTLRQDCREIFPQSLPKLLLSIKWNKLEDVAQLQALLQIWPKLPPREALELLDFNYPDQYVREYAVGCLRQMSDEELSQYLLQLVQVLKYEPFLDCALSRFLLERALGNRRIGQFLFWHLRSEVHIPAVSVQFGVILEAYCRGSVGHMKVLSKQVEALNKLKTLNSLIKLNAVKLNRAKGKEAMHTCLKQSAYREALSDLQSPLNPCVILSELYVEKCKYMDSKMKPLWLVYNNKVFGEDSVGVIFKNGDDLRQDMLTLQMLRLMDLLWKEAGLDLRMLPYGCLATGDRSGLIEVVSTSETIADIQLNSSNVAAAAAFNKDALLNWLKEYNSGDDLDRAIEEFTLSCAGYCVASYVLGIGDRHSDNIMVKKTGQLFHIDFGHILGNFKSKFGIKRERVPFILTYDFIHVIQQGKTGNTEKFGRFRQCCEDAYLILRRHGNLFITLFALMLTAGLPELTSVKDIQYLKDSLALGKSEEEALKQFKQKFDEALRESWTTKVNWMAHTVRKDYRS
Chain of EPHA7 (human) (Q15375 whole entry, looked up): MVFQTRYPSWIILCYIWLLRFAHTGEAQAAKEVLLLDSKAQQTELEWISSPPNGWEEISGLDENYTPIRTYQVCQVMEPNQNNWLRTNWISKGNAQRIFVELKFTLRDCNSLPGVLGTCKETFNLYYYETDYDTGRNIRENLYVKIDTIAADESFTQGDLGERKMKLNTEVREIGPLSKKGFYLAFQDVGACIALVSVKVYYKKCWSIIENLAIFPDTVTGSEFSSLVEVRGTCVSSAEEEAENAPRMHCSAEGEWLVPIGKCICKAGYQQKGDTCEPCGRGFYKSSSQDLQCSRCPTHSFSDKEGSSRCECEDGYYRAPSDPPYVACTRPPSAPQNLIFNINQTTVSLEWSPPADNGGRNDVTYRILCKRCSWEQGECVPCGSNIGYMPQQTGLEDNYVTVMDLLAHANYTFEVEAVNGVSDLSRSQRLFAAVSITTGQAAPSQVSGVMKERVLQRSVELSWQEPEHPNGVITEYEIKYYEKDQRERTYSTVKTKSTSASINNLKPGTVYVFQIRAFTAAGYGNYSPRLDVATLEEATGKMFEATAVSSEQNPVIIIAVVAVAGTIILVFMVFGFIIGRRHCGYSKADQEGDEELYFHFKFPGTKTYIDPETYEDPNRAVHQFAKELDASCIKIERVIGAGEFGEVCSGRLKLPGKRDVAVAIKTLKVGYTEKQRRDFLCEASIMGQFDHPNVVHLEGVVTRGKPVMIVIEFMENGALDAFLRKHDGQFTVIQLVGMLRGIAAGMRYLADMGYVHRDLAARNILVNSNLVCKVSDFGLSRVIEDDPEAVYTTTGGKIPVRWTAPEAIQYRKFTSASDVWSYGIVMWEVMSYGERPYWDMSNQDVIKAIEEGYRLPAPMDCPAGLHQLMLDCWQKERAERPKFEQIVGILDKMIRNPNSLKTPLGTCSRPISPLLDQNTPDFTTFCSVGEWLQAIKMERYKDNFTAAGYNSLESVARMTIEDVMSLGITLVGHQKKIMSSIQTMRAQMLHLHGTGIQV
Chain of PRPF4B (human) (Q13523 whole entry, looked up): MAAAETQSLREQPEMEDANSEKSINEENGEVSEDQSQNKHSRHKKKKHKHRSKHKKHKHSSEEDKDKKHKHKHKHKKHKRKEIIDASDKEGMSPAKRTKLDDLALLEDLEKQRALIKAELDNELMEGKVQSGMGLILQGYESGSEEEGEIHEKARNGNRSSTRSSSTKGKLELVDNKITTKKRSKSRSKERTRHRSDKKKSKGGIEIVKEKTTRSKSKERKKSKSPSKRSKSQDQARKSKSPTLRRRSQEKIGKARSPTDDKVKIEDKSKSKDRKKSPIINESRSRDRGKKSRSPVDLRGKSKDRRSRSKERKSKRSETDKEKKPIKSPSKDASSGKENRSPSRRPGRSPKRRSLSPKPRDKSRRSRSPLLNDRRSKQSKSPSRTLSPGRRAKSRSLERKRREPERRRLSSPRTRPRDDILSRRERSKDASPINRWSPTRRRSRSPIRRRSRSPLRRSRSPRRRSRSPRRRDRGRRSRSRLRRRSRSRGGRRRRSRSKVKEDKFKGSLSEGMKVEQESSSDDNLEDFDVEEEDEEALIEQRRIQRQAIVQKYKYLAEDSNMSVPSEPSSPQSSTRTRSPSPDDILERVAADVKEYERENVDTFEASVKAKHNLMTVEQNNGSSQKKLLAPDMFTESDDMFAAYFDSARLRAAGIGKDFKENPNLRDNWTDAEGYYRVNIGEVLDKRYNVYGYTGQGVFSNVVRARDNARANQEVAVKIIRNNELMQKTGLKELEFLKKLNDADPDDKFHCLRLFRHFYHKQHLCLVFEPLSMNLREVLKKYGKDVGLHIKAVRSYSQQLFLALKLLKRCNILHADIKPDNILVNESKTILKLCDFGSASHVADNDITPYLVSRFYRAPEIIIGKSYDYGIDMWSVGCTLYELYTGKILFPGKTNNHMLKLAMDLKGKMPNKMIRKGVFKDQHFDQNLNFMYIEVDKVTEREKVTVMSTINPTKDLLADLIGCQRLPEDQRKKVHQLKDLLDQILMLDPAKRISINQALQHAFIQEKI
Chain of AURKB (human) (Q96GD4 whole entry, looked up): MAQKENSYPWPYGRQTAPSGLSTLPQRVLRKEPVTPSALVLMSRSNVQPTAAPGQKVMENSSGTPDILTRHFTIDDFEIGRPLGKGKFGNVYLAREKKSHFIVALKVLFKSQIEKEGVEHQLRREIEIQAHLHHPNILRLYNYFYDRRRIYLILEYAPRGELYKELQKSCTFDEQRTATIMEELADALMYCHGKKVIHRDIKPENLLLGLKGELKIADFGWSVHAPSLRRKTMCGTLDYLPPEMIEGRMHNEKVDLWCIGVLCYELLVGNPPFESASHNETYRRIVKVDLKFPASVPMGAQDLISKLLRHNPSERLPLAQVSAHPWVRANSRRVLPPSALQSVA

## CNC(=O)Nc1ccc(-c2nc(N3CC4CCC(C3)O4)c3cnn(C4CCC5(CC4)OCCO5)c3n2)cc1
PRKCE (human)
  kinase still bound, per cent of control: 100%
PTK2 (human)
  kinase still bound, per cent of control: 78%
SRPK2 (human)
  kinase still bound, per cent of control: 90%
MAP3K7 (human)
  kinase still bound, per cent of control: 98%
[1]
  kinase still bound, per cent of control: 52%
FRK (human)
  kinase still bound, per cent of control: 68%
SGK110 (human)
  kinase still bound, per cent of control: 96%
PAK6 (human)
  kinase still bound, per cent of control: 100%
NEK5 (human)
  kinase still bound, per cent of control: 81%
DAPK1 (human)
  kinase still bound, per cent of control: 12%
PAK3 (human)
  kinase still bound, per cent of control: 99%
EPHA7 (human)
  kinase still bound, per cent of control: 87%
AURKB (human)
  kinase still bound, per cent of control: 92%
TSSK1B (human)
  kinase still bound, per cent of control: 100%
ICK (human)
  kinase still bound, per cent of control: 87%
PIK3CB (human)
  kinase still bound, per cent of control: 46%
STK24 (human)
  kinase still bound, per cent of control: 96%
MAP3K9 (human)
  kinase still bound, per cent of control: 97%
MAPK12 (human)
  kinase still bound, per cent of control: 54%
TIE1 (human)
  kinase still bound, per cent of control: 98%
RPS6KA5 KD1 (human)
  kinase still bound, per cent of control: 86%
SIK2 (human)
  kinase still bound, per cent of control: 97%
FLT4 (human)
  kinase still bound, per cent of control: 88%
MAP3K13 (human)
  kinase still bound, per cent of control: 82%
PIK3C2B (human)
  kinase still bound, per cent of control: 25%
IRAK4 (human)
  kinase still bound, per cent of control: 100%
RIPK4 (human)
  kinase still bound, per cent of control: 98%
RPS6KA6 KD1 (human)
  kinase still bound, per cent of control: 87%
STK32C (human)
  kinase still bound, per cent of control: 90%
MTOR (human)
  kinase still bound, per cent of control: 5.7%
PRKD1 (human)
  kinase still bound, per cent of control: 100%
PRPF4B (human)
  kinase still bound, per cent of control: 70%
CSNK2A1 (human)
  kinase still bound, per cent of control: 80%
CHUK (human)
  kinase still bound, per cent of control: 100%
CaMK1 (human)
  kinase still bound, per cent of control: 93%
TNNI3K (human)
  kinase still bound, per cent of control: 59%
CDK16 (human)
  kinase still bound, per cent of control: 100%
CDK9 (human)
  kinase still bound, per cent of control: 100%
TNK2 (human)
  kinase still bound, per cent of control: 84%
MAPK6 (human)
  kinase still bound, per cent of control: 85%

## O=c1[nH]c2ccccc2n1C1CCN(Cc2ccc(-c3nc4cc5[nH]cnc5cc4nc3-c3ccccc3)cc2)CC1
PRKCE (human)
  kinase still bound, per cent of control: 100%
PTK2 (human)
  kinase still bound, per cent of control: 95%
SRPK2 (human)
  kinase still bound, per cent of control: 85%
MAP3K7 (human)
  kinase still bound, per cent of control: 85%
[1]
  kinase still bound, per cent of control: 77%
FRK (human)
  kinase still bound, per cent of control: 100%
SGK110 (human)
  kinase still bound, per cent of control: 81%
PAK6 (human)
  kinase still bound, per cent of control: 85%
NEK5 (human)
  kinase still bound, per cent of control: 97%
DAPK1 (human)
  kinase still bound, per cent of control: 100%
PAK3 (human)
  kinase still bound, per cent of control: 72%
EPHA7 (human)
  kinase still bound, per cent of control: 100%
AURKB (human)
  kinase still bound, per cent of control: 91%
TSSK1B (human)
  kinase still bound, per cent of control: 82%
ICK (human)
  kinase still bound, per cent of control: 91%
PIK3CB (human)
  kinase still bound, per cent of control: 6.7%
STK24 (human)
  kinase still bound, per cent of control: 100%
MAP3K9 (human)
  kinase still bound, per cent of control: 96%
MAPK12 (human)
  kinase still bound, per cent of control: 98%
TIE1 (human)
  kinase still bound, per cent of control: 100%
RPS6KA5 KD1 (human)
  kinase still bound, per cent of control: 100%
SIK2 (human)
  kinase still bound, per cent of control: 85%
FLT4 (human)
  kinase still bound, per cent of control: 100%
MAP3K13 (human)
  kinase still bound, per cent of control: 100%
PIK3C2B (human)
  kinase still bound, per cent of control: 54%
IRAK4 (human)
  kinase still bound, per cent of control: 80%
RIPK4 (human)
  kinase still bound, per cent of control: 87%
RPS6KA6 KD1 (human)
  kinase still bound, per cent of control: 75%
STK32C (human)
  kinase still bound, per cent of control: 87%
MTOR (human)
  kinase still bound, per cent of control: 100%
PRKD1 (human)
  kinase still bound, per cent of control: 86%
PRPF4B (human)
  kinase still bound, per cent of control: 81%
CSNK2A1 (human)
  kinase still bound, per cent of control: 96%
CHUK (human)
  kinase still bound, per cent of control: 75%
CaMK1 (human)
  kinase still bound, per cent of control: 87%
TNNI3K (human)
  kinase still bound, per cent of control: 100%
CDK16 (human)
  kinase still bound, per cent of control: 97%
CDK9 (human)
  kinase still bound, per cent of control: 100%
TNK2 (human)
  kinase still bound, per cent of control: 100%
MAPK6 (human)
  kinase still bound, per cent of control: 100%
